Key:
T98G cells [1] = assay: Cell migration (wound healing) assay, T98G; format: cell-based, human; settings: 24 h; for Migration of cancer cells (wound healing): IC50 doses (2: 26.82 μM; 3: 28.34 μM); for Reduction in the migratory potential: ½ IC50 concentrations (2: 13.41 μM; 3: 14.17 μM)
Description: The possible anti-migratory effect of 2 and 3 was examined against HepG2 and T98G cells, which most effectively responded to TZD–TSC treatment. The ability of cells to cover the scratched area was monitored after 24 h of incubation with compounds 2 and 3. […] Thus, we can conclude that the anticancer potential of the investigated compounds is enriched by their anti-metastatic effect.
Cell migration ability was evaluated according to a wound healing assay. On the day of the experiment, HepG2 and T98G cells were collected from monolayers using trypsin/EDTA and seeded on 6-well plates at a density of 1 × 10^5 cells mL^−1. After 24 h, when the confluence of cells reached about 80%, a vertical linear scratch was created in the monolayer with a sterile pipette tip. The cells were washed three times with a phosphate-buffered saline (PBS) to remove all cellular debris. Subsequently, the cells were cultured in a serum-free medium, containing compounds 2 or 3 in the concentrations equal to their IC50 or ½ IC50 values, as examined for HepG2 and T98G cancer cell lines (data provided in Table 2).Images of the scratch were taken after 0 h and 24 h using an Olympus CKX53 microscope coupled with a XM10 digital camera (Olympus). The experiments were performed at least in duplicate. The scratch area at the beginning of the experiment (0 h) was considered to be 100%. The open wound area was measured with the NIH ImageJ software version 1.53t (Bethesda, Rockville, MD, USA). The percentage of wound closure was calculated using the following formula [81]: Wound closure (%)=open wound area at 0 h −open wound area at 24 h or 48 h/open wound area at 0 h×100%

T98G cells [2] = assay: ECM cell invasion assay (colorimetric), T98G; format: cell-based, human
Description: The anti-invasion effects of 2 and 3 were examined using a Cell Invasion Assay Kit (ECM550, CHEMICON—Millipore Co., Billerica, MA, USA). In brief, 10^5 tumor cells were suspended in medium with 10% FBS and plated into the upper chamber, containing 8 μm pore size polycarbonate membrane precoated with ECMatrix, followed by filling the lower chamber with the same medium, enriched with the investigated compounds. Afterwards, cells were incubated for 24 h and allowed to invade towards the bottom chamber (with medium + 10% FBS). The non-invading cells on the upper membrane surface were removed with a cotton swab and the invasive cells, i.e., cells attached to the lower membrane surface, were stained with 0.1% crystal violet. For colorimetric quantitation, the stained cells were dissolved in 10% acetic acid (200 μL/well) and the obtained solution was transferred to a 96-well plate for spectrometric measurements, at a wavelength of 560 nm.

[3] = system: human red blood cells (RBCs); assay: In vitro hemolysis assay; format: cell-based; settings: 30 min, 37 °C, at IC50 values for HepG2
Description: The hematologic toxicity of the most cytotoxic TZD–TSCs, compounds 2 and 3, was tested via in vitro hemolysis assay, following a 30 min treatment of human RBCs at 37 °C with these compounds.
Human red blood cell (RBC) concentrate was obtained from the Regional Blood Donation and Transfusion Centre (Lublin, Poland). The RBC concentrate (5 mL) was washed three times with sterile PBS and centrifuged at 500 g for 3 minutes. The obtained pellet was suspended in sterile PBS to obtain a 2% suspension, which was subsequently mixed with 1 mL of solution of TZD–TSCs 2 and 3. […] The mixtures were incubated at 37 °C for 30 min and, subsequently, centrifuged at 1400× g for 10 min. The amount of free hemoglobin in the supernatants was measured spectrophotometrically at 405 nm. Negative and positive controls were performed by incubating RBCs with sterile PBS and 0.1% Triton-X, respectively. Each experiment was run in triplicate.

[4] = Ferric-reducing antioxidant power (FRAP) assay
Text: Antioxidant activity is a complex procedure, usually happening through several multiple or predominant chemical mechanisms (i.e., hydrogen atom transfer (HAT), single electron transfer (SET), and the ability to chelate transition metals), and it is influenced by many factors, which cannot be fully described with one single method. Therefore, it is important to perform more than one type of measurement to take into account the various mechanisms of antioxidant action. In this study, to assess the antioxidant activity of TZD–TSCs 2–5, two complementary tests were used: a DPPH (2,2-diphenyl-1-picrylhydrazyl) free radical-scavenging ability assay, that detects the HAT and SET mechanisms, and a FRAP (ferric reducing antioxidant power) assay, that prefers the […] mechanism. The antioxidant powers of 2–5 were compared to standard antioxidants, such as the water-soluble synthetic analogue of vitamin E (Trolox) and ascorbic acid (vitamin C).
Each compound concentration (25, 75, 150, and 200 μg/mL, respectively) was dissolved in Milli-Q water and mixed with an equal volume of 0.2 M sodium phosphate buffer (pH 6.6) and 1% potassium ferricyanide. The mixture was incubated for 30 min at 37 °C. Thereafter, 10% trichloroacetic acid (w/v) was added and the mixture was centrifuged at 1000 g for 5 min. One mL of the upper layer was mixed with an equal volume of Milli-Q water and 0.1% ferric chloride. The absorbance was read at 700 nm using an EL800 Universal Microplate Reader (BioTek Instruments, Winooski, VT, USA). Ascorbic acid (0–150 μg/mL) was used as a positive control.

Compound	Migration of cancer cells (wound healing) (T98G cells [1])	Reduction in the migratory potential (T98G cells [1]) [%]	Invasion through artificial ECM model (T98G cells [2]; 1/10 IC50 to IC50, 24 h)	Invasion through artificial ECM model (T98G cells [2]; 1/10 of the IC50 doses, 24 h)	Hemolytic activity (free hemoglobin released) [3]	FRAP reduction value corresponding to concentration of ascorbic acid ([4]; compound at 25 μg/mL) [µg/mL]	FRAP reduction value corresponding to concentration of ascorbic acid ([4]; compound at 75 μg/mL) [µg/mL]	FRAP reduction value corresponding to concentration of ascorbic acid ([4]; compound at 150 μg/mL) [µg/mL]	FRAP reduction value corresponding to concentration of ascorbic acid ([4]; compound at 200 μg/mL) [µg/mL]
O=C(C=C1SC(=O)NC1=O)Oc1ccccc1C=NNC(=S)Nc1ccccc1Cl [TZD–TSC 2]	almost completely suppressed	> 90	exhibited inhibitory effects	statistically significantly inhibited	no specific hemolytic activity	2.43	4.32	3.51	7.84
O=C(C=C1SC(=O)NC1=O)Oc1ccccc1C=NNC(=S)Nc1cccc(Cl)c1 [TZD–TSC 3]	almost completely suppressed	> 90	exhibited inhibitory effects	statistically significantly inhibited	no specific hemolytic activity	0.81	0.27	1.08	1.89
